Source: US7008905B2, “Method of combating undesired plant growth on cereals” (BASF Aktiengesellschaft, priority 2000, dated 2006)

Legend:
Assay type in all cases: in vivo
Setaria viridis = experiment: Post-emergence test, weed control; settings: 2–4 weeks after treatment, rating 0-100 (100=death), Table 5
Protocol: (§1) These acetone solutions are diluted with water and the resulting formulations applied at dosage levels equivalent of about 0.030 to 0.240 kg per hectare of test compound per pot. After spraying the plants are placed an greenhouse benches and are cared for in the usual manner, commensurate with conventional greenhouse practices. From 2 to 4 weeks after treatment, the seedling plants are examined and rated according to the rating system provided above. A rating 0 indicates growth as untreated control, a rating 100 indicates death.

Stellaria media = experiment: Post-emergence test, weed control; settings: 2–4 weeks after treatment, rating 0-100 (100=death), Table 5
Protocol: as §1

Lamium purpureum = experiment: Post-emergence test, weed control; settings: 2–4 weeks after treatment, rating 0-100 (100=death), Table 5
Protocol: as §1

Galium aparine = experiment: Post-emergence test, weed control; settings: 2–4 weeks after treatment, rating 0-100 (100=death), Table 5
Protocol: as §1

VIOAR = experiment: Post-emergence test, weed control; settings: 2–4 weeks after treatment, rating 0-100 (100=death), Table 5
Protocol: as §1

barley = experiment: Pre-emergence test, tolerance in barley
Protocol: (§2) The pre-emergence tests involve spraying a liquid formulation of the compound onto the soil in which the seeds of the plant species mentioned above has recently been sown.
(§3) The soil used in the tests is a prepared horticultural loam. The formulations used in the tests are prepared from solutions of the test compounds in acetone containing 0.4% by weight of an alkylphenol/ethylene oxide condensate available under the trade mark TRITON X-155.
(§4) These acetone solutions are diluted with water and the resulting formulations applied at dosage levels corresponding to 15 g, 30 g, 60 g, 120 g or 240 g of active material per hectare in a volume equivalent to 900 liters per hectare. In these tests untreated sown soil is used as control. The herbicidal effects of the test compounds are assessed visually three weeks after spraying the soil and are recorded an a 0 to 100 scale. A rating 0 indicates growth as untreated control, a rating 100 indicates death. An increase of 10 unit an the linear scale approximates to a 10% increase in the level of effect. The results of the assessment are set out in Tables 1 to 4.

wheat [1] = experiment: Post-emergence test, tolerance in wheat
Protocol: as §1

[2] = test system: grasses and broadleaf weeds; experiment: Post-emergence test, overall weed control
Protocol: as §1

wheat [3] = experiment: Pre-emergence test, tolerance in wheat
Protocol: as §2, §3, §4

Cc1cnc(-c2ccc(C(F)(F)F)cc2)nc1Oc1cccc(C(F)(F)F)c1 [REF-1]
SETVI weed control rating (Setaria viridis; 0.030 kg/ha): 99 | SETVI weed control rating (Setaria viridis; 0.060 kg/ha): 99 | SETVI weed control rating (Setaria viridis; 0.120 kg/ha): 100 | SETVI weed control rating (Setaria viridis; 0.240 kg/ha): 100 | STEME weed control rating (Stellaria media; 0.030 kg/ha): 80 | STEME weed control rating (Stellaria media; 0.060 kg/ha): 90 | STEME weed control rating (Stellaria media; 0.120 kg/ha): 92 | STEME weed control rating (Stellaria media; 0.240 kg/ha): 92 | LAMPU weed control rating (Lamium purpureum; 0.030 kg/ha): 93 | LAMPU weed control rating (Lamium purpureum; 0.060 kg/ha): 93 | LAMPU weed control rating (Lamium purpureum; 0.120 kg/ha): 93 | LAMPU weed control rating (Lamium purpureum; 0.240 kg/ha): 93 | GALAP weed control rating (Galium aparine; 0.030 kg/ha): 80 | GALAP weed control rating (Galium aparine; 0.060 kg/ha): 85 | GALAP weed control rating (Galium aparine; 0.120 kg/ha): 92 | GALAP weed control rating (Galium aparine; 0.240 kg/ha): 92 | VIOAR weed control rating (VIOAR; 0.030 kg/ha): 92 | VIOAR weed control rating (VIOAR; 0.060 kg/ha): 93 | VIOAR weed control rating (VIOAR; 0.120 kg/ha): 93 | VIOAR weed control rating (VIOAR; 0.240 kg/ha): 95 | dose at which sufficiently selective in barley (barley): did not exhibit acceptable tolerance in barley at any dose

Cc1nc(-c2ccc(C(F)(F)F)cc2)nc(Oc2cccc(C(F)(F)F)c2)c1C [REF-2]
maximum tolerated dose in wheat / dose at which sufficiently selective in wheat (wheat [1]; in vivo): similarly selective in wheat | SETVI weed control rating (Setaria viridis; 0.030 kg/ha): 30 | SETVI weed control rating (Setaria viridis; 0.060 kg/ha): 55 | SETVI weed control rating (Setaria viridis; 0.120 kg/ha): 96 | SETVI weed control rating (Setaria viridis; 0.240 kg/ha): 100 | STEME weed control rating (Stellaria media; 0.030 kg/ha): 45 | STEME weed control rating (Stellaria media; 0.060 kg/ha): 50 | STEME weed control rating (Stellaria media; 0.120 kg/ha): 55 | STEME weed control rating (Stellaria media; 0.240 kg/ha): 80 | LAMPU weed control rating (Lamium purpureum; 0.030 kg/ha): 85 | LAMPU weed control rating (Lamium purpureum; 0.060 kg/ha): 90 | LAMPU weed control rating (Lamium purpureum; 0.120 kg/ha): 92 | LAMPU weed control rating (Lamium purpureum; 0.240 kg/ha): 93 | GALAP weed control rating (Galium aparine; 0.030 kg/ha): 50 | GALAP weed control rating (Galium aparine; 0.060 kg/ha): 80 | GALAP weed control rating (Galium aparine; 0.120 kg/ha): 85 | GALAP weed control rating (Galium aparine; 0.240 kg/ha): 85 | VIOAR weed control rating (VIOAR; 0.030 kg/ha): 75 | VIOAR weed control rating (VIOAR; 0.060 kg/ha): 90 | VIOAR weed control rating (VIOAR; 0.120 kg/ha): 90 | VIOAR weed control rating (VIOAR; 0.240 kg/ha): 95

CCc1cc(Oc2cccc(C(F)(F)F)c2)nc(-c2ccc(C(F)(F)F)cc2)n1 [REF-3]
weed control at wheat selective doses [2]: incomplete | maximum tolerated dose in wheat / dose at which sufficiently selective in wheat (wheat [1]; in vivo): clearly less selective in wheat than TTP | maximum tolerated dose in wheat / dose at which sufficiently selective in wheat (wheat [3]; in vivo): 60 g/ha | SETVI weed control rating (Setaria viridis; 0.030 kg/ha): 95 | SETVI weed control rating (Setaria viridis; 0.060 kg/ha): 98 | SETVI weed control rating (Setaria viridis; 0.120 kg/ha): 99 | SETVI weed control rating (Setaria viridis; 0.240 kg/ha): 100 | STEME weed control rating (Stellaria media; 0.030 kg/ha): 65 | STEME weed control rating (Stellaria media; 0.060 kg/ha): 85 | STEME weed control rating (Stellaria media; 0.120 kg/ha): 85 | STEME weed control rating (Stellaria media; 0.240 kg/ha): 92 | LAMPU weed control rating (Lamium purpureum; 0.030 kg/ha): 93 | LAMPU weed control rating (Lamium purpureum; 0.060 kg/ha): 93 | LAMPU weed control rating (Lamium purpureum; 0.120 kg/ha): 93 | LAMPU weed control rating (Lamium purpureum; 0.240 kg/ha): 93 | GALAP weed control rating (Galium aparine; 0.030 kg/ha): 90 | GALAP weed control rating (Galium aparine; 0.060 kg/ha): 90 | GALAP weed control rating (Galium aparine; 0.120 kg/ha): 93 | GALAP weed control rating (Galium aparine; 0.240 kg/ha): 93 | VIOAR weed control rating (VIOAR; 0.030 kg/ha): 90 | VIOAR weed control rating (VIOAR; 0.060 kg/ha): 90 | VIOAR weed control rating (VIOAR; 0.120 kg/ha): 90 | VIOAR weed control rating (VIOAR; 0.240 kg/ha): 93

FC(F)(F)c1ccc(-c2nccc(Oc3cccc(C(F)(F)F)c3)n2)cc1 [TTP, 4-(3-trifluoromethylphenoxy)-2-(4-trifluoromethyl-phenyl)-pyrimidine]
maximum tolerated dose in wheat / dose at which sufficiently selective in wheat (wheat [1]; post-emergence): 240 g/ha | maximum tolerated dose in wheat / dose at which sufficiently selective in wheat (wheat [3]; pre-emergence): 240 g/ha | SETVI weed control rating (Setaria viridis; 0.030 kg/ha): 93 | SETVI weed control rating (Setaria viridis; 0.060 kg/ha): 97 | SETVI weed control rating (Setaria viridis; 0.120 kg/ha): 97 | SETVI weed control rating (Setaria viridis; 0.240 kg/ha): 100 | STEME weed control rating (Stellaria media; 0.030 kg/ha): 50 | STEME weed control rating (Stellaria media; 0.060 kg/ha): 60 | STEME weed control rating (Stellaria media; 0.120 kg/ha): 70 | STEME weed control rating (Stellaria media; 0.240 kg/ha): 90 | LAMPU weed control rating (Lamium purpureum; 0.030 kg/ha): 85 | LAMPU weed control rating (Lamium purpureum; 0.060 kg/ha): 75 | LAMPU weed control rating (Lamium purpureum; 0.120 kg/ha): 92 | LAMPU weed control rating (Lamium purpureum; 0.240 kg/ha): 93 | GALAP weed control rating (Galium aparine; 0.030 kg/ha): 60 | GALAP weed control rating (Galium aparine; 0.060 kg/ha): 97 | GALAP weed control rating (Galium aparine; 0.120 kg/ha): 80 | GALAP weed control rating (Galium aparine; 0.240 kg/ha): 93 | VIOAR weed control rating (VIOAR; 0.030 kg/ha): 90 | VIOAR weed control rating (VIOAR; 0.060 kg/ha): 92 | VIOAR weed control rating (VIOAR; 0.120 kg/ha): 92 | VIOAR weed control rating (VIOAR; 0.240 kg/ha): 95 | dose at which sufficiently selective in barley (barley): 15 g/ha
